Settings: Liquid, Vibrating tube method

CCCCCCCCCC [decane]
mass density [kg/m3]
Settings	283.15 K	288.15 K	293.15 K	298.15 K	303.15 K	308.15 K	313.15 K	318.15 K	323.15 K	328.15 K
100 kPa	737.4	733.69	729.94	726.19	722.46	718.65	714.79	710.99	707.17	703.3
5000 kPa	740.81	737.19	733.53	729.88	726.23	722.52	718.83	715.08	711.4	707.67
10000 kPa	744.17	740.63	737.08	733.52	729.98	726.36	722.76	719.13	715.55	711.97
15000 kPa	747.39	743.93	740.5	737	733.55	730.01	726.52	722.99	719.49	716.03
20000 kPa	750.49	747.14	743.76	740.37	736.98	733.55	730.14	726.69	723.28	719.87
25000 kPa	753.52	750.22	746.92	743.6	740.29	737.01	733.61	730.22	726.9	723.57
30000 kPa	756.43	753.19	749.98	746.72	743.46	740.13	736.95	733.65	730.37	727.1
35000 kPa	759.27	756.11	752.94	749.72	746.54	743.26	740.17	736.93	733.71	730.51
40000 kPa	762.02	758.92	755.79	752.67	749.5	746.32	743.25	740.05	736.93	733.79

— the NIST ThermoML archive (doi:10.1021/je0342320)
